Patent EP4537815A1, “COMPOSITION COMPRISING A LASSO PEPTIDE […] A PHARMACEUTICALLY ACCEPTABLE NANOEMULSION” (priority 2023, dated 2025)
Entries after “also recorded” stand apart in the source; their conditions may differ. Where a SMILES comes first, the peptide text is derived from it. Bridges are numbered along the chain shown (N, C = ends).

Tests used:
[1] = system: E. faecalis V583, E. faecium Bi21, E. faecium Bi22; test: In vitro bacterial growth in the presence of the lasso peptide alone; assay type: cell-based, Enterococcus
Method: (§1) An evaluation of bacterial growth was performed in vitro to assess the bacterial response to either vancomycin or bacitracin, in the absence or in the presence of either sviceucin or siamycin I.
(§2) Each strain was cultured at 37 °C in M17 medium (Terzaghi and Sandine 1975) supplemented with 0.5 % (weight/volume) glucose (GM17 medium). Overnight cultures are grown in GM17 broth and are used to inoculate the cultures for MIC measurement.
(§3) Lyophilized lasso peptides were solubilized first at 800 µM in a 1:1 solution of sterilized pure water and methanol. This stock is used for subsequent dilutions in GM17.
(§4) The lasso peptides (either siamycin I or sviceucin) were added for the relevant conditions at a final concentration of 10 µM, 5 µM or 2.5 µM. Bacterial strains from overnight cultures were added with an inoculum of 5 x 10^5 CFU/mL. The MIC corresponds to the lowest concentration in the wells where no growth is observed.

[2] = system: E. faecalis V583 (exhibiting VanB resistance); test: Vancomycin MIC by microdilution (CLSI) in GM17, VanB-resistant strain, with or without lasso peptide; assay type: cell-based; settings: VanB-type
Method: as §1, §2, §3
(§5) The measurement of the minimal inhibitory concentration (MIC) of antibiotic (either vancomycin or bacitracin) was determined by the microdilution method in accordance with the guidelines of the Clinical and Laboratory Standards Institute (CLSI 2012), with GM17 medium used as a growth medium. Subsequent 2-fold serial dilutions of the antibiotic (either vancomycin or bacitracin) were performed to obtain concentrations ranging from 0.5 to 512 µg/mL.
as §4, with “observed. […]” for “observed.”

[3] = system: bacitracin resistant Gram-positive bacteria belonging to the Enterococcus genus; test: Bacitracin MIC by microdilution (CLSI) in GM17, with or without lasso peptide; assay type: cell-based
Method: as §1, §2, §3, §5
as §4, with “observed. […]” for “observed.”

[4] = system: E. faecium Bi21 (exhibiting VanA resistance), E. faecium Bi22 (exhibiting VanA resistance); test: Vancomycin MIC by microdilution (CLSI) in GM17, VanA-resistant strains, with or without lasso peptide; assay type: cell-based
Method: as §1, §2, §3, §5
as §4, with “observed. […]” for “observed.”

Row | SMILES | Growth in the presence of the lasso peptide alone ([1]; lasso peptide at 2.5 µM) | Growth in the presence of the lasso peptide alone ([1]; lasso peptide at 5 µM) | effect on vancomycin resistance ([2]; lasso peptide at 2.5 µM combined with vancomycin) | effect on bacitracin resistance ([3]; lasso peptide at 2.5 µM combined with bacitracin) | Vancomycin MIC (VanA-resistant strains) ([4]; in the presence of the lasso peptide at 5 µM) | effect on vancomycin resistance ([4]; lasso peptide at 2.5 µM combined with vancomycin, VanA-type) | effect on vancomycin resistance ([2]; lasso peptide at 10 µM combined with vancomycin) | effect on bacitracin resistance ([3]; lasso peptide at 10 µM combined with bacitracin)
1 | CC[C@H](C)[C@@H]1NC(=O)[C@H](C)NC(=O)[C@H](Cc2ccc(O)cc2)NC(=O)CNC(=O)[C@@H]2CSSC[C@@H]3NC(=O)C[C@H](NC(=O)[C@H](CC(N)=O)NC(=O)[C@H](CSSC[C@@H](C(=O)N[C@@H](Cc4ccccc4)C(=O)N[C@@H](Cc4c[nH]c5ccccc45)C(=O)O)NC(=O)[C@H](C(C)C)NC1=O)NC(=O)[C@H](CO)NC(=O)CNC(=O)[C@H](C(C)C)NC(=O)CNC(=O)[C@H](CC(C)C)NC3=O)C(=O)N[C@@H](Cc1ccccc1)C(=O)N[C@@H](C)C(=O)NCC(=O)N2 [Siamycin I, siamycin I] (CLGVGSCNDFAGCGYAIVCFW-OH; disulfide 1-13, 7-19 (inferred); lactam N-9 (inferred); C-terminus assumed) | Growth slowed down but not inhibited | exhibits a growth inhibition activity; also recorded: Growth inhibited | reverses vancomycin resistance | reverses bacitracin resistance | 0 µg/mL | reverses vancomycin resistance | – | –
2 | CC[C@H](C)[C@@H]1NC(=O)[C@H](Cc2c[nH]c3ccccc23)NC(=O)[C@H](C)NC(=O)[C@H]([C@@H](C)O)NC(=O)CNC(=O)[C@@H]2CSSC[C@@H]3NC(=O)C[C@H](NC(=O)[C@H]([C@@H](C)O)NC(=O)[C@H](CSSC[C@@H](C(=O)N[C@H](C(=O)O)C(C)C)NC1=O)NC(=O)[C@H](CC(=O)O)NC(=O)CNC(=O)CNC(=O)[C@H](Cc1c[nH]c4ccccc14)NC(=O)[C@H](C(C)C)NC3=O)C(=O)N[C@@H](Cc1ccccc1)C(=O)N[C@@H](CC(C)C)C(=O)NCC(=O)N2 [Sviceucin, sviceucin] (CVWGGDCTDFLGCGTAWICV-OH; disulfide 1-13, 7-19 (inferred); lactam N-9 (inferred); C-terminus assumed) | – | – | – | – | – | – | reverses vancomycin resistance | reverses bacitracin resistance
